Data on 20 compounds can be found in patent US5773424A, “Treatment of toxoplasmosis” (priority 1994, dated 1998).

The target of one experiment is T. gondii adenosine kinase (Toxoplasma gondii, UniProt Q9TVW2). In words: biochemical.
Sequence of T. gondii adenosine kinase (Q9TVW2 whole entry): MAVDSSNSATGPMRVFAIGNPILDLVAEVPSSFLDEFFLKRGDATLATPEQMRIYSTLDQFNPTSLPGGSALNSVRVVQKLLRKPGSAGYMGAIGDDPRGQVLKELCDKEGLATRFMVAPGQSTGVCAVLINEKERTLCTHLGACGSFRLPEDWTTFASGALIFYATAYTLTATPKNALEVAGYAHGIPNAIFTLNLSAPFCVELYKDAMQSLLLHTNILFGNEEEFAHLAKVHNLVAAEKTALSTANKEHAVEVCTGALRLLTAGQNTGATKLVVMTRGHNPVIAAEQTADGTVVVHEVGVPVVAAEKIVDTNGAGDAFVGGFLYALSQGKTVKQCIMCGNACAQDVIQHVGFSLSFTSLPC
Settings: not given
The method, then:
Preparation of cytosol extracts. For the structure activity relationships studies, approximately 5×10^8 T. gondii were suspended in 1.2 ml of 50 mM N-2-hydroxyethylpiperazine-N'-2-ethanesulfonic acid (HEPES)-Cl (pH 8.0)/1 mM dithiothreitol and homogenized for 30 seconds at setting 10, using a Brinnmann Instruments Polytron homogenizer fitted with a PTA 7K1 probe. The homogenate was then centrifuged at approximately 116,000 g for 1 hour at 5° and the supernatant (cytosol extract) collected and used as the enzyme source. Fresh cytosol extracts were prepared for each experiment.
Adenosine kinase assay. T. gondii adenosine kinase activity was measured by following the formation of [^14 C]AMP from [^14 C]adenosine and ATP. […] Therefore, the standard reaction mixture contained 50 mM HEPES-Cl (pH 8.0), 1 mM dithiothreitol, 5 μM [8-^14 C]adenosine (45 Ci/mol), 0.5 mM ATP, 0.5 mM MgCl2, 25 μM (+)-EHNA or 100 μM (±)-EHNA,10-30 μl of cytosol extract (approximately 3-10 μg of protein), and either 0, 0.1, 0.25, 0.5 or 1.0 mM of the compound to be tested, in a final volume of 150 μl.
Reactions were started by the addition of [8-^14 C]adenosine, incubated at 37° for 10 minutes and terminated by placing the reaction tubes in a boiling water bath for 2 minutes. Precipitated proteins were removed by centrifugation in a microcentrifuge (approximately 13,000 g) for 5 minutes, and a 15 μl aliquot of the resulting supernatant was mixed with 5 μl of a solution containing 10 mM each of AMP and adenosine. This mixture was then spotted on silica gel thin layer chromatography plates which were developed with a mixture of chloroform/methanol/acetic acid (16:3:1). […] The substrate and product spots (which accounted for all of the radioactivity on the plates) were identified by UV quenching, cut out, and the radioactivity quantitated by liquid scintillation counting in 20 ml of Scintilene, using a Packard 460 scintillation counter. […] Enzyme velocity was calculated by multiplying the fraction of AMP formed from adenosine times the amount of adenosine in the assay, and dividing by the incubation time.
Determination and significance of AppKi values. AppKi values were used to determine the relative degree of binding of compounds to adenosine kinase as compared to adenosine. AppKi values were estimated from Dixon plots of the data (1/.nu. versus [I]), using a computer program with least squares fitting according to the general principles of Cleland (Cleland, W W, The statistical analysis of enzyme kinetic data. Adv. Enzymol. 29:1-32, 1967). The program was written by Dr. Sungman Cha (Brown University, Providence, R.I.) and modified to fit IBM BASIC by Dr. Fardos N. M. Naguib. […] It should be noted, however, that the type of inhibition (i.e., competitive, noncompetitive, or uncompetitive) produced by the compounds was not determined, nor were the compounds evaluated as substrates for T. gondii adenosine kinase.
For the compound `OC[C@H]1O[C@@H](n2cc(Br)c3c(NO)ncnc32)[C@H](O)[C@@H]1O` [Compound 70, N^6 -Hydroxy-7-bromo-7-deazaadenosine], affinity was put at a Ki of 37 ± 9 µM. With `CNc1ncnc2c1c(C(N)=S)cn2[C@@H]1O[C@H](CO)[C@@H](O)[C@H]1O` [Compound 71, N^6 -Methyl-7-thiocarboxyamido-7-deazaadenosine], the affinity, expressed as Ki, was 150 ± 1 µM.

Regarding `Nc1ncnc2c1cnn2[C@@H]1O[C@H](CO)[C@@H](O)[C@H]1O` [Compound 72, 8-Aza-7-deazaadenosine], affinity was put at a Ki of 1700 µM. `NC(=NO)c1c(Br)n([C@@H]2O[C@H](CO)[C@@H](O)[C@H]2O)c2ncnc(N)c12` [Compound 73, 8-Bromo-7-carboxyamidoxime-7-deazaadenosine]: the affinity, expressed as Ki, was 210 ± 30 µM. Consider `NNc1c(C(N)=O)c2c(N)ncnc2n1[C@@H]1O[C@H](CO)[C@@H](O)[C@H]1O` [Compound 74, 8-Hydrazino-7-carboxamido-7-deazaadenosine (6-Hydrazinosangivamycin)], for which the inhibition constant Ki (in general, a dissociation constant, usually derived from enzyme kinetics or from competition with a known ligand) worked out at 160 ± 9 µM. This Ki and that of the compound before are within 1.5-fold of each other. Still for that read-out and setting: the result for `OC[C@H]1O[C@@H](n2ncc3cncnc32)[C@H](O)[C@@H]1O` [Compound 75, 8-Aza-7-deazapurine riboside] reads 5100 µM; that for `CCSc1ncnc2c1cnn2[C@@H]1O[C@H](CO)[C@@H](O)[C@H]1O` [Compound 76, 8-Aza-6-ethylmercapto-7-deazapurine riboside], 210 ± 100 µM; that for `O=c1[nH]cnc2c1cnn2[C@@H]1O[C@H](CO)[C@@H](O)[C@H]1O` [Compound 77, 8-Aza-6-hydroxy-7-deazapurine riboside (allopurinol)], 15000 µM. Still for that read-out and setting: then `CSc1ncnc2c1cnn2[C@@H]1O[C@H](CO)[C@@H](O)[C@H]1O` [Compound 79, 8-Aza-6-methylmercapto-7-deazapurine riboside], with 140 ± 30 µM; and `NC(=O)c1cn([C@@H]2O[C@H](CO)[C@@H](O)[C@H]2O)c2nc[n+]([O-])c(N)c12` [Compound 80, 7-Carboxamido-7-deazaadenosine-N^1-oxide], with 780 ± 70 µM; and `O=c1[nH]cnc2c([C@@H]3O[C@H](CO)[C@@H](O)[C@H]3O)n[nH]c12` [Compound 82, 8-Aza-9-deazainosine (formycin B)], with 3100 µM. Compound `CSc1ncnc2c1nnn2[C@@H]1O[C@H](CO)[C@@H](O)[C@H]1O` [Compound 83, 8-Aza-6-methylmercaptopurine riboside] showed an inhibitory constant (Ki) of 130 ± 40 µM. As to `OC[C@H]1O[C@@H](n2cnc3c2N=CNC[C@H]3O)[C@H](O)[C@@H]1O` [Compound 85, Coformycin], the inhibition constant Ki was 2000 µM. Compound `Nc1ncnc2c1ncn2[C@@H]1O[C@H](CO)[C@@H](O)[C@@H]1O` [Compound 86, Adenine arabinoside (ara-A)] displayed a Ki of 3000 µM. Compared with the last compound, the Ki is about 1.5-fold higher. In turn, `Nc1ncnc2c1ncn2[C@H]1C[C@H](O)[C@@H](CO)O1` [Compound 87, 2'-Deoxyadenosine] gave a Ki of 4200 µM. Compound `Nc1ncnc2c1ncn2[C@@H]1O[C@H](CO)C[C@H]1O` [Compound 90, 3'-Deoxyadenosine (Cordycepin)] had a Ki of 1100 µM.

Staying with this experiment, now noted: read-out: Inhibition of T. gondii adenosine kinase.
On to `OC[C@H]1O[C@@H](n2ncc3c(=S)[nH]cnc32)[C@H](O)[C@@H]1O` [Compound 78, 8-Aza-6-mercapto-7-deazapurine riboside], for which the inhibition – broadly, the percentage by which the read-out fell short of the control – at 1000 µM is under 10%. On the same count and under the same terms, the result for `OC[C@H]1O[C@@H](n2cnc3ccccc32)[C@H](O)[C@@H]1O` [Compound 84, Benzimidazole riboside ("1,3-dideazapurine riboside")] reads under 10%; that for `CO[C@@H]1[C@H](O)[C@@H](CO)O[C@H]1n1cnc2c(N)ncnc21` [Compound 88, 2'-O-Methyladenosine], under 10%. Turning to `Cc1ccc(S(=O)(=O)O[C@@H]2[C@H](O)[C@@H](CO)O[C@H]2n2cnc3c(N)ncnc32)cc1` [Compound 89, 2'Tosyladenosine], the inhibition at 1000 µM was under 10%.

Staying with this experiment, now noted: relative to adenosine.
On to `CO[C@@H]1[C@H](O)[C@@H](CO)O[C@H]1n1cnc2c(N)ncnc21` [Compound 88, 2'-O-Methyladenosine], for which the “Effect on binding to T. gondii adenosine kinase, in words” value is recorded as “abolishes”.

Staying with this experiment, now noted: relative to reference compound adenosine.
For the compound `Nc1ncnc2c1ncn2[C@@H]1O[C@H](CO)[C@@H](O)[C@@H]1O` [Compound 86, Adenine arabinoside (ara-A)], the “Decrease in binding to T. gondii adenosine kinase” value turned out to be 430 fold. On the same count and under the same terms, the result for `Nc1ncnc2c1ncn2[C@H]1C[C@H](O)[C@@H](CO)O1` [Compound 87, 2'-Deoxyadenosine] reads 600 fold.
